Some results are limits rather than exact numbers.

Sequence of recombinant human GCN2 protein (Q9P2K8 whole entry): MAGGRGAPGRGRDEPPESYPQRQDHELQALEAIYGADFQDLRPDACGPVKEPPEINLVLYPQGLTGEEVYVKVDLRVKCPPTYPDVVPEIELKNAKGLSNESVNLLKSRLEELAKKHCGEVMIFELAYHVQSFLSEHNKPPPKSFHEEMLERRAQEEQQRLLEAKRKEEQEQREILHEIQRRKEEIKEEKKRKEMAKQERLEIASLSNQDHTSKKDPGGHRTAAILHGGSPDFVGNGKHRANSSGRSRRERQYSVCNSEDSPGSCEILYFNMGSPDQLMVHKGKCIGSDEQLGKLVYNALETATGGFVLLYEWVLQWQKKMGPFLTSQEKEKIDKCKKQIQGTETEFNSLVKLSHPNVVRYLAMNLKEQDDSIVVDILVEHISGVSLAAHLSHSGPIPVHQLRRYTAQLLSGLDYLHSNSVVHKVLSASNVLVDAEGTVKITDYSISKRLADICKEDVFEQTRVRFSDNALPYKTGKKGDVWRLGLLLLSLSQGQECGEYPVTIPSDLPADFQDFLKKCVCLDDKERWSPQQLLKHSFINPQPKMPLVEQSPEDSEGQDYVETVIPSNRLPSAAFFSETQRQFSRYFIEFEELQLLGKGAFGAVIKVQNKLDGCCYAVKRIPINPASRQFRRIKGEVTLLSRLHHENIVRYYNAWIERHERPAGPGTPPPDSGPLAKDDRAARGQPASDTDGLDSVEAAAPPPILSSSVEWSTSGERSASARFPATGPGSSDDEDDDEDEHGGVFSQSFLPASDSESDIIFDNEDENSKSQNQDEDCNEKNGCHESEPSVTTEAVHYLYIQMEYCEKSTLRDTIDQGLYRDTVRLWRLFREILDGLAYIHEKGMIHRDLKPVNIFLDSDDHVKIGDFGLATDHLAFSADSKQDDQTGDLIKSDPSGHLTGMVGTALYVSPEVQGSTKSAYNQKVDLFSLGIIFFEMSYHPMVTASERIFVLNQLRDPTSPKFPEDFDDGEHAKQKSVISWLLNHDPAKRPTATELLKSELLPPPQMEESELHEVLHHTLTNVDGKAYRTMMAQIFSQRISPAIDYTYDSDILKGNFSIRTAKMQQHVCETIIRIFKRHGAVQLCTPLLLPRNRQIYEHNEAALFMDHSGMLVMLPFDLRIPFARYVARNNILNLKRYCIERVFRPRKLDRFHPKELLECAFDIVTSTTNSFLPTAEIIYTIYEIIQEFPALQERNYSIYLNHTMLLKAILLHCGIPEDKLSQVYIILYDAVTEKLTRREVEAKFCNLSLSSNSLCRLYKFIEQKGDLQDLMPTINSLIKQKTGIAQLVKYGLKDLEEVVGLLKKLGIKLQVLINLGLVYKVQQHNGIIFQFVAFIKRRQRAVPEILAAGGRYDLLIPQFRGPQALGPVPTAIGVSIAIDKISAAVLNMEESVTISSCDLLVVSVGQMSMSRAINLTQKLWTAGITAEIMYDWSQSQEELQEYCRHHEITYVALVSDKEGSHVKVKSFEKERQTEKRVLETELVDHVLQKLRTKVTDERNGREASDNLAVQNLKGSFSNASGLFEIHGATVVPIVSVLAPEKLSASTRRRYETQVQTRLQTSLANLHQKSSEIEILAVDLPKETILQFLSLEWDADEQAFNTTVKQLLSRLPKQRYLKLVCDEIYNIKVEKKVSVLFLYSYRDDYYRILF

The target of the assay is recombinant human GCN2 protein (Homo sapiens, UniProt Q9P2K8). Description: General control nonderepressible 2 (GCN2) inhibitory capacity, 33P-ATP filter assay. In kind it is biochemical. The note with it: recombinant human GCN2, 70 uM [gamma-33P-ATP], 40 minutes, room temperature. As to the method:
<Experimental Example 2> Evaluation of General Control Nonderepressible 2 (GCN2) Inhibitory Capacity
A recombinant human GCN2 protein was mixed with the compound in a reaction solution (20 mM Tris/HCl pH8.5, 0.2 mM EDTA, 0.1% Tween, 100 mM NaCl, 300 μM RSRSRSRSRSRSRSR, 10 mM Magnesium acetate, 70 uM [gamma-33P-ATP]) and reacted at room temperature for 40 minutes. Then, the reaction was terminated by adding phosphoric acid (0.5%) to the reaction mixture, and 10 ul of the reaction solution was dropped onto a P30 filter. The filter was washed four times in a 0.425% phosphoric acid solution for 4 minutes, then washed once more in methanol, dried, and the GCN2 activity was measured by scintillation counting. […] The compound was diluted by 1/3 from the highest concentration of 1 uM and treated with a total of 9 concentrations to evaluate the degree of inhibition.
Regarding `COc1ncc(Cl)cc1S(=O)(=O)Nc1ccc(F)c(-n2cc(C)c3nc(N)ncc3c2=O)c1F` [Example 21, N-(3-(2-amino-8-methyl-5-oxopirido[4,3-d]pyrimidin-6(5H)-yl)-2,4-difluorophenyl)-5-chloro-2-methoxypyridine-3-sulfonamide], the IC50 is below 100 nM. In the case of `COc1ncc(Cl)cc1S(=O)(=O)Nc1ccc(F)c(-n2cc(CO)c3nc(N)ncc3c2=O)c1F` [Example 23, N-(3-(2-amino-8-hydroxymethyl)-5-oxopirido[4,3-d]pyrimidin-6(5H)-2,4-difluorophenyl)-5-chloro-2-methoxypyridine-3-sulfonamide] it was 100 to 300 nM. In the case of `Nc1ncc2c(=O)n(-c3c(F)ccc(NS(=O)(=O)c4cc(Cl)ccc4Cl)c3F)ccc2n1` [Example 24, N-(3-(2-amino-5-oxopirido[4,3-d]pyrimidin-6(5H)-yl)-2,4-difluorophenyl)-2,5-dichlorobenzenesulfonamide] it was below 100 nM. In the case of `Cc1nn(C)c(Cl)c1S(=O)(=O)Nc1ccc(F)c(-n2ccc3nc(N)ncc3c2=O)c1F` [Example 30, N-(3-(2-amino-5-oxopirido[4,3-d]pyrimidin-6(5H)-yl)-2,4-difluorophenyl)-5-chloro-1,3-dimethyl-1H-pyrazole-4-sulfonamide] it was 100 to 300 nM; in that of `Nc1ncc2c(=O)n(-c3c(F)ccc(NS(=O)(=O)c4ccc(Cl)s4)c3F)ccc2n1` [Example 31, N-(3-(2-amino-5-oxopirido[4,3-d]pyrimidin-6(5H)-yl)-2,4-difluorophenyl)-5-chlorothiophene-2-sulfonamide], 100 to 300 nM.

As to `COc1ncc(Cl)cc1S(=O)(=O)Nc1ccc(F)c(-n2cc(Br)c3nc(N)ncc3c2=O)c1F` [Example 33, N-(3-(2-amino-8-bromo-5-oxopirido[4,3-d]pyrimidin-6(5H)-yl)-2,4-difluorophenyl)-5-chloro-2-methoxypyridine-3-sulfonamide], the IC50 is above 1000 nM.

In the case of `Cc1nn(-c2c(F)ccc(NS(=O)(=O)c3cc(Cl)ccc3Cl)c2F)c(=O)c2cnc(N)nc12` [Example 34, N-(3-(2-amino-8-methyl-5-oxopyrimido[4,5-d]pyridazine-6(5H)-yl)-2,4-difluorophenyl)-2,5-dichlorobenzenesulfonamide], the IC50 is below 100 nM. For `Cc1nn(-c2c(F)ccc(NS(=O)(=O)c3cn(C)nc3C(F)(F)F)c2F)c(=O)c2cnc(N)nc12` [Example 35, N-(3-(2-amino-8-methyl-5-oxopyrimido[4,5-d]pyridazine-6(5H)-yl)-2,4-difluorophenyl)-1-methyl-3-(trifluoromethyl)-1H-pyrazole-4-sulfonamide] the value was above 1000 nM; for `Cc1nn(-c2c(F)ccc(NS(=O)(=O)c3cc(Cl)cc(CO)c3Cl)c2F)c(=O)c2cnc(N)nc12` [Example 37, N-(3-(2-amino-8-methyl-5-oxopyrimido[4,5-d]pyridazine-6(5H)-yl)-2,4-difluorophenyl)-2,5-dichloro-3-(hydroxymethyl)benzene sulfonamide], above 1000 nM. For `CN1CN(c2c(F)ccc(NS(=O)(=O)c3cc(Cl)ccc3Cl)c2F)C(=O)c2cnc(N)nc21` [Example 39, N-(3-(7-amino-1-methyl-4-oxo-1,4-dihydropyrimido[4,5-d]pyrimidin-3(2H)-yl)-2,4-difluorophenyl)-2,5-dichlorobenzenesulfonamide] the value was 100 to 300 nM; for `COc1ncc(Cl)cc1S(=O)(=O)Nc1ccc(F)c(N2CN(C)c3nc(N)ncc3C2=O)c1F` [Example 40, N-(3-(7-amino-1-methyl-4-oxo-1,4-dihydropyrimido[4,5-d]pyrimidin-3(2H)-yl)-2,4-difluorophenyl)-5-chloro-2-methoxypyridine-3-sulfonamide], 100 to 300 nM. For `CN1CN(c2c(F)ccc(NS(=O)(=O)c3cccc4ccccc34)c2F)C(=O)c2cnc(N)nc21` [Example 41, N-(3-(7-amino-1-methyl-4-oxo-1,4-dihydropyrimido[4,5-d]pyrimidin-3(2H)-yl)-2,4-difluorophenyl)naphthalene-1-sulfonamide] the value was 100 to 300 nM; for `Cn1c(=O)n(-c2c(F)ccc(NS(=O)(=O)c3cc(Cl)ccc3Cl)c2F)c(=O)c2cnc(N)nc21` [Example 42, N-(3-(7-amino-1-methyl-2,4-dioxo-1,4-dihydropyrimido[4,5-d]pyrimidin-3(2H)-yl)-2,4-difluorophenyl)-2,5-dichlorobenzenesulfonamide], 100 to 300 nM; for `COc1ncc(C#N)cc1S(=O)(=O)Nc1ccc(F)c(-n2c(=O)c3cnc(N)nc3n(C)c2=O)c1F` [Example 47, N-(3-(7-amino-1-methyl-2,4-dioxo-1,4-dihydropyrimido[4,5-d]pyrimidin-3(2H)-yl)-2,4-difluorophenyl)-5-cyano-2-methoxypyridine-3-sulfonamide], below 100 nM. For `Cn1c(=O)n(-c2c(F)ccc(NS(=O)(=O)c3cc(C(F)(F)F)ccc3Cl)c2F)c(=O)c2cnc(N)nc21` [Example 49, N-(3-(7-amino-1-methyl-2,4-dioxo-1,2-dihydropyrimido[4,5-d]pyrimidin-3(4H)-yl)-2,4-difluorophenyl)-2-chloro-5-(trifluoromethyl)benzenesulfonamide], the IC50 fell in the range of 100 to 300 nM. In the case of `Cn1c(=O)n(-c2c(F)ccc(NS(=O)(=O)c3ccc(Cl)s3)c2F)c(=O)c2cnc(N)nc21` [Example 50, N-(3-(7-amino-1-methyl-2,4-dioxo-1,4-dihydropyrimido[4,5-d]pyrimidin-3(2H)-yl)-2,4-difluorophenyl)-5-chlorothiophene-2-sulfonamide] it was below 100 nM; in that of `Cc1ccc(Cl)cc1S(=O)(=O)Nc1ccc(F)c(-n2c(=O)c3cnc(N)nc3n(C)c2=O)c1F` [Example 52, N-(3-(7-amino-1-methyl-2,4-dioxo-1,4-dihydropyrimido[4,5-d]pyrimidin-3(2H)-yl)-2,4-difluorophenyl)-5-chloro-2-methylbenzenesulfonamide], below 100 nM; in that of `CN1C(=O)Cc2cc(S(=O)(=O)Nc3ccc(F)c(-n4c(=O)c5cnc(N)nc5n(C)c4=O)c3F)ccc21` [Example 53, N-(3-(7-amino-1-methyl-2,4-dioxo-1,4-dihydropyrimido[4,5-d]pyrimidin-3(2H)-yl)-2,4-difluorophenyl)-1-methyl-2-oxoindoline-5-sulfonamide], above 1000 nM. In the case of `Cn1c(=O)n(-c2c(F)ccc(NS(=O)(=O)c3cc(F)ccc3F)c2F)c(=O)c2cnc(N)nc21` [Example 54, N-(3-(7-amino-1-methyl-2,4-dioxo-1,4-dihydropyrimido[4,5-d]pyrimidin-3(2H)-yl)-2,4-difluorophenyl)-2,5-difluorobenzenesulfonamide] it was 100 to 300 nM; in that of `Cn1c(=O)n(-c2c(F)ccc(NS(=O)(=O)c3ccc(Cl)cc3Cl)c2F)c(=O)c2cnc(N)nc21` [Example 55, N-(3-(7-amino-1-methyl-2,4-dioxo-1,2-dihydropyrimido[4,5-d]pyrimidin-3(4H)-yl)-2,4-difluorophenyl)-2,4-dichlorobenzenesulfonamide], 100 to 300 nM; in that of `Cn1cc(S(=O)(=O)Nc2ccc(F)c(-n3c(=O)c4cnc(N)nc4n(C)c3=O)c2F)cn1` [Example 56, N-(3-(7-amino-1-methyl-2,4-dioxo-1,4-dihydropyrimido[4,5-d]pyrimidin-3(2H)-yl)-2,4-difluorophenyl)-1-methyl-1H-pyrazole-4-sulfonamide], above 1000 nM. For `CNc1ncc2c(=O)n(-c3c(F)ccc(NS(=O)(=O)c4cc(Cl)cnc4OC)c3F)c(=O)n(C)c2n1` [Example 58, 5-chloro-N-(2,4-difluoro-3-(1-methyl-7-(methylamino)-2,4-dioxo-1,4-dihydropyrimido[4,5-d]pyrimidin-3(2H)-yl)phenyl)-2-methoxypyridine-3-sulfonamide] the value was 100 to 300 nM; for `Nc1ncc2c(n1)N(C1CC1)CN(c1c(F)ccc(NS(=O)(=O)c3cc(Cl)ccc3Cl)c1F)C2=O` [Example 59, N-(3-(7-amino-1-cyclopropyl-4-oxo-1,4-dihydropyrimido[4,5-d]pyrimidin-3(2H)-yl)-2,4-difluorophenyl)-2,5-dichlorobenzenesulfonamide], 100 to 300 nM; for `COc1ncc(Cl)cc1S(=O)(=O)Nc1ccc(F)c(N2CN(C3CC3)c3nc(N)ncc3C2=O)c1F` [Example 60, N-(3-(7-amino-1-cyclopropyl-4-oxo-1,4-dihydropyrimido[4,5-d]pyrimidin-3(2H)-yl)-2,4-difluorophenyl)-5-chloro-2-methoxypyridine-3-sulfonamide], 100 to 300 nM. In the case of `Nc1ncc2c(n1)N(C1CC1)CN(c1c(F)ccc(NS(=O)(=O)c3cccc4ccccc34)c1F)C2=O` [Example 61, N-(3-(7-amino-1-cyclopropyl-4-oxo-1,4-dihydropyrimido[4,5-d]pyrimidin-3(2H)-yl)-2,4-difluorophenyl)naphthalene-1-sulfonamide], the IC50 lay in the range of 100 to 300 nM. For the compound `Cc1nn(C)c(Cl)c1S(=O)(=O)Nc1ccc(F)c(N2CN(C3CC3)c3nc(N)ncc3C2=O)c1F` [Example 62, N-(3-(7-amino-1-cyclopropyl-4-oxo-1,4-dihydropyrimido[4,5-d]pyrimidin-3(2H)-yl)-2,4-difluorophenyl)-5-chloro-1,3-dimethyl-1H-pyrazole-4-sulfonamide], the IC50 was above 1000 nM. For `Cc1nn(C)c(Cl)c1S(=O)(=O)Nc1ccc(F)c(-n2c(=O)c3cnc(N)nc3n(C3CC3)c2=O)c1F` [Example 66, N-(3-(7-amino-1-cyclopropyl-2,4-dioxo-1,4-dihydropyrimido[4,5-d]pyrimidin-3(2H)-yl)-2,4-difluorophenyl)-5-chloro-1,3-dimethyl-1H-pyrazole-4-sulfonamide] the value was 300 to 1000 nM.

As usually defined, the IC50 is the concentration that gives 50% inhibition.

(Values after patent publication US20260184706A1, “PHENYLSULFONAMIDE DERIVATIVES, PREPARATION METHOD THEREFOR, AND PHARMACEUTICAL COMPOSITION FOR PREVENTION OR TREATMENT OF CANCER CONTAINING SAME AS ACTIVE INGREDIENT” (Korea Research Institute of Chemical Technology, priority 2022, published 2026).)
